Assay [1] deals with Staphylococcus aureus. Put plainly: Antimicrobial activity against methicillin sensitive Staphylococcus aureus CCARM 0204. It counts as functional, organism-based.
Another assay concerns Salmonella typhimurium. Put plainly: Antimicrobial activity against Salmonella typhimurium 2515. In kind it is functional, organism-based. To be noted: Salmonella enterica subsp. enterica serovar Typhimurium.
In assay [2] the test system is Staphylococcus epidermidis. The experiment in a line: Antimicrobial activity against Staphylococcus epidermidis 1917. It counts as functional, organism-based.
In a further assay the test system is Bacillus subtilis. Put plainly: Antimicrobial activity against Bacillus subtilis 1021. In kind it is functional, organism-based.
Assay [3] deals with PANC-1. The experiment in a line: Cytotoxicity against human PANC-1 cells assessed as reduction in cell viability at 10 to 100 uM incubated for 72 hrs by MTT assay. It counts as functional, cell-based. Particulars: dose 10-100 µM. In general terms: Formazan colour is commonly taken as a measure of viable cells.
In another assay the test system is Escherichia coli. The experiment in a line: Antimicrobial activity against Escherichia coli 2441. It counts as functional, organism-based.
Another assay relates to RAW264.7. The experiment in a line: Inhibition of nitric oxide production in LPS-activated mouse RAW264.7 cells. In kind it is functional, cell-based.
In assay [4] the test system is Staphylococcus aureus. Put plainly: Antimicrobial activity against methicillin sensitive Staphylococcus aureus CCARM 3635. It counts as functional, organism-based.
The subject of assay [5] is Staphylococcus aureus. Put plainly: Antimicrobial activity against methicillin sensitive Staphylococcus aureus CCARM 3090. In kind it is functional, organism-based.
The test system of assay [6] is Staphylococcus aureus. Put plainly: Antimicrobial activity against methicillin sensitive Staphylococcus aureus CCARM 0205. It counts as functional, organism-based.
The subject of assay [7] is PANC-1. The experiment in a line: Antimetastatic activity in human PANC-1 cells assessed as decrease in migration at 80 uM incubated for 48 hrs by scratch wound healing assay relative to control. It counts as functional. Also noted: scale not given: the % may be the effect or the level left.

Among the data in ChEMBL document CHEMBL5620439, “Talaromides A-C, Bioactive Cyclic Heptapeptides from Talaromyces siglerae Isolated from a Marine Sponge” (2024) are Activity and inhibition values, retold here.

Active and inactive are the calls of the source. No cut-off for these calls is given here.

`CC[C@@H](C)[C@H]1NC(=O)[C@H](C)NC(=O)[C@H]([C@@H](C)O)NC(=O)[C@@H](Cc2ccc(O)cc2)NC(=O)[C@@H](C(C)C)NC(=O)c2ccccc2NC(=O)[C@@H]2CCCN2C1=O`: the outcome (in the assay with Staphylococcus aureus [1]; in the assay on Salmonella typhimurium; in assay [2]; in the assay with Bacillus subtilis; with PANC-1 [3]; with Escherichia coli) was inactive. Besides, the result in the assay with Staphylococcus aureus [4], in the assay with Staphylococcus aureus [5] and in the assay on Staphylococcus aureus [6] was inactive. Besides, the inhibition entry with RAW264.7 was “inactive”. The Activity in the assay with PANC-1 [7] came out at 52%.
For `CC[C@@H](C)[C@H]1NC(=O)c2ccccc2NC(=O)[C@@H]2CCCN2C(=O)[C@@H](CC(C)C)NC(=O)[C@H](C)NC(=O)[C@H]([C@@H](C)O)NC(=O)[C@@H](Cc2ccc(O)cc2)NC1=O`, the outcome (in the assay on Staphylococcus aureus [1]; in the assay with Salmonella typhimurium; in assay [2]; in the assay with Bacillus subtilis; with PANC-1 [3]; in the assay on Escherichia coli) was inactive. Further, the result in the assay on Staphylococcus aureus [4], in the assay with Staphylococcus aureus [5] and with Staphylococcus aureus [6] was inactive. For the same molecule, the inhibition result in the assay on RAW264.7 is “inactive”.
For `CC[C@@H](C)[C@H]1NC(=O)c2ccccc2NC(=O)[C@@H]2CCCN2C(=O)[C@@H]([C@H](C)CC)NC(=O)[C@H](C)NC(=O)[C@H]([C@@H](C)O)NC(=O)[C@@H](Cc2ccc(O)cc2)NC1=O`, the result (in the assay with Staphylococcus aureus [1]; in the assay with Salmonella typhimurium; in [2]; in the assay with Bacillus subtilis; with PANC-1 [3]; in the assay on Escherichia coli) was inactive. For the same molecule, the outcome with Staphylococcus aureus [4], in the assay on Staphylococcus aureus [5] and with Staphylococcus aureus [6] was inactive. Further, the inhibition entry in the assay on RAW264.7 was “inactive”. Moreover, the Activity in the assay on PANC-1 [7] is recorded as 48%.
